Results reported in article PMC4764201, “High Throughput Screen for Escherichia coli Twin Arginine Translocation (Tat) Inhibitors” (PLoS ONE, 2016).

Columns and labels:
[1] = system: Escherichia coli Tat pathway; assay: Live cell assay: total mCherry fluorescence of cells producing spTorA-mCherry-SsrA (primary HTS assay); type: cell-based; conditions: for effect on mCherry fluorescence in culture: nigericin and/or valinomycin, 50 μM each
Source text: Having obtained the calibration and validation data described in the previous sections, we next established the protocol for the HTS. Details are provided in the Materials and Methods section. Here, we briefly summarize the assay. A single colony of E. coli strain MC4100(DE3) containing plasmids encoding TatABC and spTorA-mCherry-SsrA was inoculated into LB and grown overnight. The next morning, cells were transferred to fresh media, the production of TatABC and spTorA-mCherry-SsrA was induced, and cultures were aliquoted onto plates with test compounds. NaSCN was included in control wells to simulate a hit. Cells were grown for 8 h, followed by incubation at 4°C overnight, and then read the next day. Setting the total cellular fluorescence obtained with spTorA-mCherry-H6 under Tat^++ conditions to 100%, spTorA-mCherry-SsrA yielded a total cellular fluorescence signal of 63±14%, consistent with SsrA-induced degradation of the mCherry protein. The total cellular fluorescence was further reduced to 36±14% in the presence of 30 mM NaSCN (simulated hit), and to 41±6% in the absence of TatABC, verifying the Δψ- and Tat-dependence of the fluorescence signal (Fig 4D).
A single colony of E. coli strain MC4100(DE3) (pTatABC-DUET1, pTorA-mCherry-SsrA) was inoculated into a 100 mL LB culture supplemented with Ap and Cm and grown at 37°C with shaking (250 rpm) overnight. Cells were harvested by centrifugation at 4,000g for 10 min at room temperature (RT), suspended in 10 mL fresh LB broth supplemented with Ap and Cm, and the optical density (A500) was determined. Simultaneously, 700 mL LB supplemented with 100 mM arabinose, 2 mM IPTG, 100 μg/mL Ap and 68 μg/mL Cm was filter-sterilized (0.22 μm), and then divided into 200 mL (A) and 500 mL (B) portions. Sterile NaSCN (30 mM final; 1.5 mL of 4 M NaSCN) was added to portion A, and an equal ratio of sterile water was added to portion B (3.75 mL). Media and cells were transferred to the HTS facility on ice.
A CyBi-Well vario pipetting workstation (CyBio, Jena, Germany) was used to dispense library compounds and cultures. Library compounds (1 μL) solubilized in DMSO were added to 384-well black, clear-bottomed plates (Greiner Bio-one, Germany) in columns 3 to 22 (320 wells/plate). For controls, DMSO (1 μL) was added to each well in columns 1, 2, […], to achieve DMSO uniformity across the plate. Both portions of LB media were inoculated with E. coli MC4100(DE3) (pTatABC-DUET1, pTorA-mCherry-SsrA) from the concentrated stock to a final A500 = 0.15. The media with 30 mM NaSCN (positive control, or simulated hit) was dispensed into each well of columns 1 and 24 (49 μL each). An equivalent volume of media without NaSCN was dispensed into each well of columns 2 to 23. Columns 2 and 23 lacked NaSCN and test compounds and served as negative controls. The first 12,800 compounds were screened at 5 μM (plates 1–40), and the remaining 38,800 compounds were screened at 20 μM (plates 41–162).
(§1) The plates containing cells and dispersed test compounds were grown with shaking (200 rpm) at 25°C for 8 h. Plates were individually mounted, not stacked, on a hollow plastic platform, allowing adequate air circulation. Following the 8 h incubation, plates were transferred to 4°C for 16 h. Each plate was covered with an empty plate to prevent condensation on the lid. […] Following the incubation, plates were read using a BMG Polarstar Omega plate reader (BMG Labtech, Ortenberg, Germany) to determine optical densities (A500) and mCherry fluorescence intensities (EX = 584 nm, EM = 620 nm).
Supplementary file pone.0149659.s003.tiff: S3 Fig IC50's for Hit Compound 181^JS. (A) The total cellular mCherry fluorescence (live cell assay; n = 1), (B) the in vitro NADH-dependent Tat transport efficiency of pre-SufI (n = 1), and (C) the maximum transmembrane electrical potential gradient (n = 1) were measured for a range of concentrations of compound 181^JS (S2E Fig). (D) SDS-PAGE gel showing in-gel fluorescence data used in (B). […]

[2] = system: E. coli MC4100(DE3); assay: Cell growth (optical density A500) under Tat++ conditions; type: cell-based, Escherichia coli
Description: Fig 4 Effect of Oxidative Phosphorylation Inhibitors on In Vivo Tat Transport and Sensitivity of Fluorescence Detection on Plates. (A) Effect of oxidative phosphorylation inhibitors on cell growth and mCherry fluorescence under Tat^++ conditions. Cells producing spTorA-mCherry-SsrA under Tat^++ conditions were grown at 25°C for 8 h in the presence of the indicated respiratory inhibitors. After overnight incubation at 4°C, optical densities (upper panel; A500) and total mCherry cellular fluorescence intensities (lower panel; EX = 587 nm, EM = 610 nm) were measured (n = 3). Nigericin (N; 50 μM) is a H^+/K^+ exchanger, which collapses the ΔpH gradient. Valinomycin (V; 50 μM) is a K^+ ionophore, which collapses the Δψ. NaSCN (SCN; 50 mM) collapses the Δψ. NaN3 (N3; 0.1%) inhibits the cytochrome bo3 terminal oxidase. (B) Effect of NaSCN concentration on cell density and total mCherry cellular fluorescence. Measurements were made after incubating cells overnight at 4°C (n = 3). (C) Calibration and sensitivity of mCherry fluorescence detection in 384-well plates. Overnight cultures of E. coli MC4100(DE3) cells were diluted to A500 = 0.25, 0.2, 0.15, 0.10 and 0.05, and aliquoted into 384-well plates. The spTorA-mCherry-SsrA and TatABC proteins were induced together or neither were induced, as indicated. The cells were incubated at 25°C for 8 hours, and stored overnight at 4°C. Optical densities (upper panel) and mCherry fluorescence intensities (lower panel) were determined with a BMG Polarstar Omega plate reader (at 500 nm for absorbance; EX = 584 nm, EM = 620 nm for fluorescence). For comparison, the absorbance and fluorescence intensities from purified spTorA-mCherry-H6 (30, 25, 20, 15, 10 and 5 nM) are also shown (n = 3 plates, 16 wells/plate). (D) Simulated hits on 384-well plates. Using the approach described in (C), cells (A500 = 0.15) were grown on plates under the indicated conditions, and then fluorescence intensities were measured. spTorA-mCherry-SsrA was used for conditions II-IV. spTorA-mCherry-H6 was used for a minus SsrA control (I; 100%). The SsrA tag decreased the mCherry fluorescence intensity (II; 63±14%), consistent with a decrease in cytoplasmic mCherry concentration due to SsrA-dependent degradation.
as §1
Supplementary file pone.0149659.s005.tiff: S5 Fig Effect of P. aeruginosa Tat Inhibitors on E. coli Cell Growth and Tat Transport. The concentration-dependent effects of Bay 11–7082 (A) and N-phenylmaleimide (B) on bacterial growth (black) and in vivo Tat transport of spTorA-mCherry-SsrA (red) was determined under Tat^++ conditions (top). An overnight culture of MC4100(DE3) (pTorA-mCherry-SsrA, pTatABC-Duet1) was diluted 1:50 in 10 mL fresh LB broth with appropriate antibiotics and dispensed (2 mL) into 5 tubes, and growth was continued at 37°C with shaking at 200 rpm until A500 ≈ 0.5. The indicated concentrations of the two compounds were added, and the expression of spTorA-mCherry-SsrA and TatABC were induced. Cultures were grown for another 8 h at 25°C. Cell growth was assayed by A500, and cells (1 mL, A500 = 1.0) were fractionated into cytoplasmic (C) and periplasmic (P) fractions as described. Transport of spTorA-mCherry-SsrA was assayed by in-gel fluorescence of mCherry (upper gels) and Western blot analyses (middle gels). […]

[3] = target: E. coli Tat machinery (IMVs containing overproduced TatABC) (Escherichia coli, UniProt P69423+P69425+P69428); conditions: cited from earlier work; for effect on Tat transport in vitro: 2.5 μM of each of the two ionophores, both added
[4] = nigericin and/or valinomycin, 50 μM each

E. coli Tat machinery (IMVs containing overproduced TatABC), sequence (P69423 2-258): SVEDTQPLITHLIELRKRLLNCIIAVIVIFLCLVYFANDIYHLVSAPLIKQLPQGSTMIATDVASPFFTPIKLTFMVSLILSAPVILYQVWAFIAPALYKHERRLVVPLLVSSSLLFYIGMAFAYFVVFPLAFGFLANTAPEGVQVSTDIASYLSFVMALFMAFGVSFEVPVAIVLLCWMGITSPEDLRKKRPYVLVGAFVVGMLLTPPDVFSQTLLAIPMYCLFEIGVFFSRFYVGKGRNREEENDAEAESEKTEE
E. coli Tat machinery (IMVs containing overproduced TatABC), sequence (P69425 whole entry): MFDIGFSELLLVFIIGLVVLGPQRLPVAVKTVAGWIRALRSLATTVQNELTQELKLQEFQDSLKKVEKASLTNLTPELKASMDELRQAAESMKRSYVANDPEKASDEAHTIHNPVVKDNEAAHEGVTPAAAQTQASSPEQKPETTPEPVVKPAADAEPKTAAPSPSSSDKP
E. coli Tat machinery (IMVs containing overproduced TatABC), sequence (P69428 whole entry): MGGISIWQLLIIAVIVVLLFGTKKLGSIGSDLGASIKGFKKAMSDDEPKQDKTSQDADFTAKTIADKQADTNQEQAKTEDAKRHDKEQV

For `N#C[S-].[Na+]` [NaSCN], the “total cellular fluorescence (mCherry)” value ([1]; 30 mM NaSCN, spTorA-mCherry-H6 under Tat++ = 100%, spTorA-mCherry-SsrA without NaSCN 63±14%) was 36±14%, the “reduction of mCherry fluorescence” value ([1]; NaSCN 50 mM, Tat++ cells, 25°C 8 h) was ~ 40% and the “concentration sufficient to maximally reduce the mCherry fluorescence signal without affecting cell growth” value ([1]; dose response, Tat++ cells) was 30 mM. The “effect on growth of E. coli cultures” value ([2]; NaSCN 50 mM) was “without affecting growth” and the “effect on in vitro Tat transport” value ([3]; NaSCN alone) was “completely inhibits”.
In the case of `CC(C)[C@@H]1NC(=O)[C@H](C)OC(=O)[C@@H](C(C)C)NC(=O)[C@@H](C(C)C)OC(=O)[C@H](C(C)C)NC(=O)[C@H](C)OC(=O)[C@@H](C(C)C)NC(=O)[C@@H](C(C)C)OC(=O)[C@H](C(C)C)NC(=O)[C@H](C)OC(=O)[C@@H](C(C)C)NC(=O)[C@@H](C(C)C)OC1=O` [valinomycin], the “effect on mCherry fluorescence in culture” value [1] is given as “did not affect”, the “effect on cell growth” value [2, 4] is given as “did not affect” and the “effect on Tat transport in vitro” value [3] is given as “completely block”.
In the case of `CO[C@@H]1C[C@@H](C[C@H]2CC[C@H](C)[C@H]([C@@H](C)C(=O)O)O2)O[C@]2(O[C@](C)([C@H]3CC[C@@](C)([C@@H]4O[C@@H]([C@H]5O[C@@](O)(CO)[C@H](C)C[C@@H]5C)C[C@@H]4C)O3)C[C@H]2C)[C@@H]1C` [nigericin], the “effect on mCherry fluorescence in culture” value [1] is listed as “did not affect”, the “effect on cell growth” value [2, 4] is listed as “did not affect” and the “effect on Tat transport in vitro” value [3] is listed as “completely block”.
In the case of `[N-]=[N+]=[N-].[Na+]` [Sodium azide], the “effect on mCherry fluorescence signal” value ([1]; NaN3 0.1%) is reported as “decreased the mCherry fluorescence signal” and the “effect on cell growth” value ([2]; NaN3 0.1%) is reported as “inhibited cell growth”.
